EP2435433B1, “(DIHYDRO)IMIDAZOISO[5,1-A]QUINOLINES AS FSH RECEPTOR AGONISTS FOR THE TREATMENT OF FERTILITY DISORDERS” (Merck Sharp & Dohme B.V., priority 2009, dated 2010)

Molecular target: T1, human FSH receptor (Homo sapiens, UniProt P23945)
T1 construct: expressed in transfected cells; host or cells: Chinese Hamster Ovary (CHO) cells, stably transfected, cotransfected with CRE/promotor-firefly luciferase reporter
T1 sequence (P23945 18-695): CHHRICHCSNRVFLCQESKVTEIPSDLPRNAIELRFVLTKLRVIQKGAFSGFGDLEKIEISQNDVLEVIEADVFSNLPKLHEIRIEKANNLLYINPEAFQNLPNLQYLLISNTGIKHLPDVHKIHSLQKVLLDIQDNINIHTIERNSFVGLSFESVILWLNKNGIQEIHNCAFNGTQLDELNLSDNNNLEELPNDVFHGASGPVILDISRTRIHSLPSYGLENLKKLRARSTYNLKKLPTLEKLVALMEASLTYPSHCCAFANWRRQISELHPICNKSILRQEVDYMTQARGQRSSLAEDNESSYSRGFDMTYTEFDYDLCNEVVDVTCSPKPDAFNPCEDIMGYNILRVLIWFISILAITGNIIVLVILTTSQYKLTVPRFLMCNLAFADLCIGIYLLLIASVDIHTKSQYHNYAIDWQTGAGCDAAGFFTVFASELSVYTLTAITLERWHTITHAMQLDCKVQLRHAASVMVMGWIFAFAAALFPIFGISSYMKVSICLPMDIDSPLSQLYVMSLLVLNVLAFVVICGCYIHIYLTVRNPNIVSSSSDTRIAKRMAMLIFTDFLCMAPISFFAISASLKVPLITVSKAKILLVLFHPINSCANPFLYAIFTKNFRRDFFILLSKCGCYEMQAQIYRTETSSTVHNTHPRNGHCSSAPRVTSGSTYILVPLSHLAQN
Experiment: Agonistic activity of compounds at the human FSH receptor expressed in CHO cells, CRE/luciferase reporter (hFSHRago (CHO luc))
Format: cell-based
Details: CHO cells stably transfected with the human FSH receptor and CRE/firefly luciferase reporter; 4 hours of incubation; half-maximal stimulation relative to the compound's own maximal effect; read-out: hFSHRago (CHO luc) EC50
Description: The term EC50 means the concentration of the test compound that elicits half-maximal (50 %) stimulation compared to the compound's maximally attainable effect. The values can be determined e.g. in a cell line transfected with a FSH receptor gene and cotransfected with a cAMP responsive element/promoter directing the expression of a reporter gene. Values can be determined using a software program such as MathIQ (version 2.0, ID Business Solutions Limited).
Agonistic activity of the compounds at the human FSH receptor was determined in Chinese Hamster Ovary (CHO) cells stably transfected with the human FSH receptor and cotransfected with a cAMP responsive element (CRE)/promotor directing the expression of a firefly luciferase reporter gene. Binding of the compounds to the Gs protein-coupled FSH receptor will result in an increase of cAMP, which in turn will induce an increased transactivation of the luciferase reporter. Cells (7,500 cells/well of a 384 well plate) were incubated in Dulbecco' minimal essential F12 modified medium (Invitrogen), supplemented with 1 µg/ml bovine insulin, 5 µg/ml human apo-transferrin, 80 U/ml penicillin G and 80 µg/ml streptomycin with the test compounds (concentration between 0.0316 nM and 10.0 µM) in duplicate in a humidified atmosphere (95%) at 5-7% CO2 and 37°C. The final concentration of DMSO was 1%. After 4 hours of incubation, plates were allowed to adjust to room temperature for 1 hour. Then, Luclite (PerkinElmer) solution was added to the wells and cells were allowed to lyse for at least 1 hour at room temperature. Subsequently, luciferase activity was measured in a luminescence counter. The signal is expressed as counts per second (cps). The EC50 (concentration of the test compound that elicits half-maximal (50 %) luciferase stimulation compared to the compound's maximally attainable effect) and efficacy values (maximal effect of the test compound as percentage of the maximal effect of recombinant human FSH) of the compounds were determined using the software program MathIQ (version 2.0, ID Business Solutions Limited). EC50 data are indicated at the synthesis examples.

Question: `COc1cc2c(cc1OCCO)-c1c(-c3cccs3)nc(C(=O)N(C)C(C)(C)C)n1CC2` [Example 30c, 9-(2-Hydroxy-ethoxy)-8-methoxy-1-thiophen-2-yl-5,6-dihydro-imidazo[5,1-a]isoquinoline-3-carboxylic acid tert-butyl-methyl-amide] was tested. Which EC50 did it give?
Answer: Its EC50 is 7 nM.

Question: With `COc1cc2c(cc1OCCN=[N+]=[N-])-c1c(-c3cccs3)nc(C(=O)N(C)C(C)(C)C)n1CC2` [Example 30e, 9-(2-Azido-ethoxy)-8-methoxy-1-thiophen-2-yl-5,6-dihydro-imidazo[5,1-a]isoquinoline-3-carboxylic acid tert-butyl-methyl-amide] as the molecule, how does the EC50 read?
Answer: Its EC50 is 15 nM.

Question: For `COc1cc2c(cc1OCCN)-c1c(-c3cccs3)nc(C(=O)N(C)C(C)(C)C)n1CC2` [Example 31, 9-(2-Amino-ethoxy)-8-methoxy-1-thiophen-2-yl-5,6-dihydro-imidazo[5,1-a]isoquinoline-3-carboxylic acid tert-butyl-methyl-amide], which EC50 is on record?
Answer: Its EC50 is 94 nM.

Question: `COc1cc2c(cc1OCCNC(C)=O)-c1c(-c3cccs3)nc(C(=O)N(C)C(C)(C)C)n1CC2` [Example 32, 9-(2-Acetylamino-ethoxy)-8-methoxy-1-thiophen-2-yl-5,6-dihydro-imidazo[5,1-a]isoquinoline-3-carboxylic acid tert-butyl-methyl-amide] was tested. Which EC50 did it give?
Answer: Its EC50 is 559 nM.

Question: With `COC(=O)NCCOc1cc2c(cc1OC)CCn1c(C(=O)N(C)C(C)(C)C)nc(-c3cccs3)c1-2` [Example 33, {2-[3-(tert-Butyl-methyl-carbamoyl)-8-methoxy-1-thiophen-2-yl-5,6-dihydro-imidazo[5,1-a]isoquinolin-9-yloxy]-ethyl}-carbamic acid methyl ester] as the molecule, how does the EC50 read?
Answer: The EC50 was 142 nM.

Question: How did the EC50 turn out when `CCN(C(=O)c1nc(-c2cccs2)c2n1CCc1cc(OC)c(OCCO)cc1-2)C(C)(C)C` [Example 34b, 9-(2-Hydroxy-ethoxy)-8-methoxy-1-thiophen-2-yl-5,6-dihydro-imidazo[5,1-a]isoquinoline-3-carboxylic acid tert-butyl-ethyl-amide] was run?
Answer: The EC50 was 3 nM.

Question: For `COCOc1cc2c(cc1OC)CCn1c(C(=O)N(C)C(C)(C)C)nc(-c3cccs3)c1-2` [Example 35b, 8-Methoxy-9-methoxymethoxy-1-thiophen-2-yl-5,6-dihydro-imidazo[5,1-a]isoquinoline-3-carboxylic acid tert-butyl-methyl-amide], which EC50 is on record?
Answer: The EC50 was 19 nM.

Question: `COc1cc2c(cc1C=C(C)C)-c1c(-c3cccs3)nc(C(=O)N(C)C(C)(C)C)n1CC2` [Example 36c, 8-Methoxy-9-(2-methyl-propenyl)-1-thiophen-2-yl-5,6-dihydro-imidazo[5,1-a]isoquinoline-3-carboxylic acid tert-butyl-methyl-amide] was tested. Which EC50 did it give?
Answer: Its EC50 is 2 nM.

Question: For `COc1cc2c(cc1CC(C)C)-c1c(-c3ncco3)nc(C(=O)N(C)C(C)(C)C)n1CC2` [Example 37f, 9-Isobutyl-8-methoxy-1-oxazol-2-yl-5,6-dihydro-imidazo[5,1-a]isoquinoline-3-carboxylic acid tert-butyl-methyl-amide], which EC50 is on record?
Answer: Its EC50 is 380 nM.

Question: How did the EC50 turn out when `COc1cc2c(cc1CC(C)C)-c1c(-c3cncs3)nc(C(=O)N(C)C(C)(C)C)n1CC2` [Example 38, 9-Isobutyl-8-methoxy-1-thiazol-5-yl-5,6-dihydro-imidazo[5,1-a]isoquinoline-3-carboxylic acid tert-butyl-methyl-amide] was run?
Answer: The EC50 was 13 nM.

Question: `COc1cc2c(cc1C=C(F)F)-c1c(-c3cccs3)nc(C(=O)N(C)C(C)(C)C)n1CC2` [Example 39, 9-(2,2-Difluoro-vinyl)-8-methoxy-1-thiophen-2-yl-5,6-dihydro-imidazo[5,1-a]isoquinoline-3-carboxylic acid tert-butyl-methyl-amide] was tested. Which EC50 did it give?
Answer: Its EC50 is 22 nM.

Question: `CCOc1ccc2c(c1)CCn1c(C(=O)N(C)C(C)(C)C)nc(-c3cccs3)c1-2` [Example 40c, 8-Ethoxy-1-thiophen-2-yl-5,6-dihydro-imidazo[5,1-a]isoquinoline-3-carboxylic acid tert-butyl-methyl-amide] was tested. Which EC50 did it give?
Answer: The EC50 was 417 nM.

Question: For `COc1cc2c(cc1CCC(C)(C)O)-c1c(-c3cccs3)nc(C(=O)N(C)C(C)(C)C)n1CC2` [Example 41c, 9-(3-Hydroxy-3-methyl-butyl)-8-methoxy-1-thiophen-2-yl-5,6-dihydro-imidazo[5,1-a]isoquinoline-3-carboxylic acid tert-butyl-methyl-amide], which EC50 is on record?
Answer: Its EC50 is 191 nM.

Question: For `COc1cc2c(cc1Oc1ccccc1)-c1c(-c3cccs3)nc(C(=O)N(C)C(C)(C)C)n1CC2` [Example 42b, 8-Methoxy-9-phenoxy-1-thiophen-2-yl-5,6-dihydro-imidazo[5,1-a]isoquinoline-3-carboxylic acid tert-butyl-methyl-amide], which EC50 is on record?
Answer: Its EC50 is 128 nM.

Question: For `COc1cccc(Oc2cc3c(cc2OC)CCn2c(C(=O)N(C)C(C)(C)C)nc(-c4cccs4)c2-3)c1` [Example 43b, 8-Methoxy-9-(3-methoxy-phenoxy)-1-thiophen-2-yl-5,6-dihydro-imidazo[5,1-a]isoquinoline-3-carboxylic acid tert-butyl-methyl-amide], which EC50 is on record?
Answer: Its EC50 is 447 nM.

Question: For `COc1cc2c(cc1-c1cccnc1)-c1c(C(C)(C)C)nc(C(=O)N(C)C(C)(C)C)n1CC2` [Example 44e, 1-tert-Butyl-8-methoxy-9-pyridin-3-yl-5,6-dihydro-imidazo[5,1-a]isoquinoline-3-carboxylic acid tert-butyl-methyl-amide], which EC50 is on record?
Answer: Its EC50 is 33 nM.

Question: How did the EC50 turn out when `COc1cc2c(cc1N1CCOCC1)-c1c(-c3cccs3)nc(C(=O)N(C)C(C)(C)C)n1CC2` [Example 45, 8-Methoxy-9-morpholin-4-yl-1-thiophen-2-yl-5,6-dihydro-imidazo[5,1-a]isoquinoline-3-carboxylic acid tert-butyl-methyl-amide] was run?
Answer: The EC50 was 113 nM.

Question: How did the EC50 turn out when `COc1cc2c(cc1NC(=O)C(C)C)-c1c(-c3cccs3)nc(C(=O)N(C)C(C)(C)C)n1CC2` [Example 46, 9-Isobutyrylamino-8-methoxy-1-thiophen-2-yl-5,6-dihydro-imidazo[5,1-a]isoquinoline-3-carboxylic acid tert-butyl-methyl-amide] was run?
Answer: The EC50 was 148 nM.

Question: Which EC50 does the source give for `COc1cc2c(cc1OC(C)C)-c1c(-c3cncs3)nc(C(=O)N(C)C(C)(C)C)n1CC2` [Example 47e, 9-Isopropoxy-8-methoxy-1-thiazol-5-yl-5,6-dihydro-imidazo[5,1-a]isoquinoline-3-carboxylic acid tert-butyl-methyl-amide] here?
Answer: Its EC50 is 6 nM.

Question: With `COc1cc2c(c(F)c1CC(C)C)-c1c(-c3cccs3)nc(C(=O)N(C)C(C)(C)C)n1CC2` [Example 48j, 10-Fluoro-9-isobutyl-8-methoxy-1-thiophen-2-yl-5,6-dihydro-imidazo[5,1-a]isoquinoline-3-carboxylic acid tert-butyl-methyl-amide] as the molecule, how does the EC50 read?
Answer: Its EC50 is 7 nM.

Question: `COc1cc2c(cc1OC)-c1c(-c3ccccc3)nc(C(=O)N3CCCCCC3)n1CC2` [Example 49d, Azepan-1-yl-(8,9-dimethoxy-1-phenyl-5,6-dihydro-imidazo[5,1-a]isoquinolin-3-yl)-methanone] was tested. Which EC50 did it give?
Answer: The EC50 was 630 nM.

Question: With `COc1cc2c(cc1OC)-c1c(-c3ccc(F)cc3)nc(C(=O)N3CCCN(C(C)=O)CC3)n1CC2` [Example 50e, 1-{4-[1-(4-Fluoro-phenyl)-8,9-dimethoxy-5,6-dihydro-imidazo[5,1-a]isoquinoline-3-carbonyl]-[1,4]diazepan-1-yl}-ethanone] as the molecule, how does the EC50 read?
Answer: Its EC50 is 315 nM.

Question: `COc1cc2c(cc1SC(C)C)-c1c(-c3cccs3)nc(C(=O)N(C)C(C)(C)C)n1CC2` [Example 52c, 9-Isopropylsulfanyl-8-methoxy-1-thiophen-2-yl-5,6-dihydro-imidazo[5,1-a]isoquinoline-3-carboxylic acid tert-butyl-methyl-amide] was tested. Which EC50 did it give?
Answer: The EC50 was 16 nM.
